ChEMBL document CHEMBL1201862, “PubChem BioAssay data set” (2004)
Values belong to the compound of their own block, whether it stands above or below them. Active and inactive are the calls of the source.

Tests used:
[1] = viability loss in Vero cells – cytotoxicity control for Vif-APOBEC3G degradation inhibitor project, dose response (AID 1117358); type: functional; conditions: Vero
[2] = loss of viability in HepG2 cells – cell-based, CellTiter-Glo, cherry-picked, cytotoxicity control for Shn3 inhibitor project, dose response (AID 624134); type: functional
[3] = non-specific 3'UTR reporter inhibition in Clone20-Shn3RL – cell-based, Renilla luciferase, cherry-picked, counter-screen for Shn3 inhibitor project, dose response (AID 624133); type: functional
[4] = system: INS1; test: INS-1E survival protection against cytokine death – cell-based, luminescence, retest, dose response (AID 449756); type: functional; conditions: Rattus norvegicus, INS1;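 also: cell death triggered by IL-1 beta plus TNF-alpha plus IFN-gamma mixture; protective hits raise ATP signal compared with cytokine alone wells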
[5] = Luminescence Cell-Based Dose Confirmation HTS to Identify Inhibitors of Polyadenylation.; type: functional
[6] = reduction of Shn3 3'UTR-driven luciferase in osteoblasts – cell-based, Clone20 osteoblasts, firefly luciferase, cherry-picked, dose response (AID 624132); type: functional;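 also: firefly luciferase luminescence from reporter carrying the Shn3 3'UTR in osteoblasts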
[7] = Potency on glucagon-like peptide 1 release, dose-response in NCI-H716 cell line, half maximal inhibitory concentration (AID 1117344); type: functional, cell-based
[8] = molecular target: Melanocortin receptor 4 (Homo sapiens, UniProt P32245); type: functional, cell-based;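 also: Cell-based assay with luminescence read-out, confirmatory dose-response testing for agonist activity of biased ligands at MC4R; human U2OS cells with tagged receptor and beta-arrestin; potency of agonists that increase receptor coupling to beta-arrestin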
[9] = molecular target: T1, Apoptotic protease-activating factor 1 (Homo sapiens, UniProt O14727); type: functional
T1 sequence (O14727 whole entry): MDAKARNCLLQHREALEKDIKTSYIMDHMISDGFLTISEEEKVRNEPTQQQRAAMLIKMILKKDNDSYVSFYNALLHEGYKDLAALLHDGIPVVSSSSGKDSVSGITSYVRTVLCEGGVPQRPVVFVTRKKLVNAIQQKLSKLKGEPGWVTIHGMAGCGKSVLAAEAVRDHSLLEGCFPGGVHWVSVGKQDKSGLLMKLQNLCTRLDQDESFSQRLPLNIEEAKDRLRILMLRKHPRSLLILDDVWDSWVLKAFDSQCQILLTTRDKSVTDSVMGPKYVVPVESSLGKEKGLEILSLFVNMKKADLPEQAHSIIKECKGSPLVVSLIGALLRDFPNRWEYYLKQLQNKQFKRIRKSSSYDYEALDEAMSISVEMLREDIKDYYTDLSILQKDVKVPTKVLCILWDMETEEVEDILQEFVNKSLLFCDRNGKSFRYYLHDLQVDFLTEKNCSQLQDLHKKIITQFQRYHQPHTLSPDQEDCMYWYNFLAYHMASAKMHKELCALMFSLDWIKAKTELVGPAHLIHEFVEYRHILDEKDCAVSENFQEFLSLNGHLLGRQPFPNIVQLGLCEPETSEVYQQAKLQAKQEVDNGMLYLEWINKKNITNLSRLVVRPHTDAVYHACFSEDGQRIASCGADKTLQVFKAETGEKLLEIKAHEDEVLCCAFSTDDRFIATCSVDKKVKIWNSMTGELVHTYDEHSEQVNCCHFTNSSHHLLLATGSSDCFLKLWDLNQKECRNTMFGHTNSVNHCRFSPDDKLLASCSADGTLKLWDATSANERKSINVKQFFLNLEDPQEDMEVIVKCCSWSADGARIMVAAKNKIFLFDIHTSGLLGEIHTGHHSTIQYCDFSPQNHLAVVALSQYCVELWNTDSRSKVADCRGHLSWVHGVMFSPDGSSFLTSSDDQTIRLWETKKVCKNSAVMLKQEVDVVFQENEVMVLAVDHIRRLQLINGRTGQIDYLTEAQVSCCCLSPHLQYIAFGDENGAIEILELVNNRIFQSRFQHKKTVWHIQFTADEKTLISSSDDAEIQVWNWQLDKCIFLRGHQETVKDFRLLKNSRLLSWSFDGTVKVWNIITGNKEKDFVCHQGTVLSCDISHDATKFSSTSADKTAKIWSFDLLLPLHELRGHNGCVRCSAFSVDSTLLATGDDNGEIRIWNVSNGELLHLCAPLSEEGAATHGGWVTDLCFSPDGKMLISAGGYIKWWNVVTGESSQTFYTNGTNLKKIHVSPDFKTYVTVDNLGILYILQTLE

[10] = molecular target: T2, Ubiquitin-conjugating enzyme E2 N (Homo sapiens, UniProt P61088); type: functional;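 also: Dose-response confirmation in a TR-FRET assay detecting UBC13-driven polyubiquitin chain formation, inhibition measured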
T2 sequence (P61088 whole entry): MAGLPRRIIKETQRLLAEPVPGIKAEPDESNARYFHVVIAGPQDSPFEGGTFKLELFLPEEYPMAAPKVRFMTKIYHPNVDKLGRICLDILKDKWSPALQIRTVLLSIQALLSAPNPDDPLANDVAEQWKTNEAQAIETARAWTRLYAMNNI

[11] = molecular target: T3, DNA repair protein RAD52 homolog (Homo sapiens, UniProt P43351); type: functional, biochemical
T3 sequence (P43351 whole entry): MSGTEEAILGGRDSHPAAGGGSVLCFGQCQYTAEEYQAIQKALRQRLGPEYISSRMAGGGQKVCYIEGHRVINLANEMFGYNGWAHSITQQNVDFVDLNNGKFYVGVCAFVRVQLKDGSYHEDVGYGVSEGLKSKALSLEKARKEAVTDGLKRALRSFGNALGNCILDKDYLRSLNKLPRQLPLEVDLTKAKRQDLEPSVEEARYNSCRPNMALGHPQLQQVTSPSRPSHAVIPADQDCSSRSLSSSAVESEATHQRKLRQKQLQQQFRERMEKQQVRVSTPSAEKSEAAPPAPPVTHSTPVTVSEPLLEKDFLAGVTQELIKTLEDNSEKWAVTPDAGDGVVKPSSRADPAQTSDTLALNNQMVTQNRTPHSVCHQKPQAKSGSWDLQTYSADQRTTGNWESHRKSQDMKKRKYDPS

[12] = glucagon-like peptide-1 release potency in STC-1, concentration-response, half-maximal inhibitory concentration in the STC-1 line (AID 1117345); type: functional, cell-based
[13] = molecular target: T4, Sphingosine 1-phosphate receptor 3 (Homo sapiens, UniProt Q99500); test: Dose Response Cell-Based Assay for Agonists of the Sphingosine 1-Phosphate Receptor 3 (S1P3): Purchased Analogues. [Related pubchem assays: 373, 439 ]; type: functional
[14] = molecular target: Sphingosine 1-phosphate receptor 1 (Homo sapiens, UniProt P21453); test: Dose Response Cell-Based Assay for Agonists of the Sphingosine 1-Phosphate Receptor 1 (S1P1): Purchased Analogues. [Related pubchem assays: 1192, 373, 439 ]; type: functional
[15] = molecular target: T5, Sphingosine 1-phosphate receptor 2 (Homo sapiens, UniProt O95136); test: Dose Response Cell-Based Assay for Agonists of the Sphingosine 1-Phosphate Receptor 2 (S1P2): Purchased Analogues. [Related pubchem assays: 1192, 373, 439 ]; type: functional
[16] = molecular target: T4, Sphingosine 1-phosphate receptor 3; test: Dose response cell-based high throughput screening assay for antagonists of the Sphingosine 1-Phosphate Receptor 3 (S1P3). [Related pubchem assays: 1429, 485 ]; type: functional
[17] = molecular target: 5-hydroxytryptamine receptor 1E (Homo sapiens, UniProt P28566); test: Counterscreen assay for S1P3 antagonists: Dose response cell-based high throughput screening assay to identify antagonists of the 5-Hydroxytryptamine Receptor Subtype 1E (5HT1E). [Related pubchem assays: 1429, 485 ]; type: functional
[18] = NIH3T3 cell viability loss – ATP luminescence, mouse fibroblasts, counter-screen, dose response (AID 2010); type: functional, cell-based;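 also: cells exposed to compound for about 90 hours before reading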
[19] = Trypanosoma cruzi growth suppression in host cells – NIH3T3 host cells, beta-gal luminescence, confirmation (AID 2044); type: functional, cell-based;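 also: intracellular parasites grown in NIH/3T3 mouse fibroblasts as host cells; luminescent beta-galactosidase reporter signal from transgenic T. cruzi replicating inside host cells; inhibitors lower the luminescence signal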
[20] = molecular target: Genome polyprotein (Hepatitis C virus, UniProt Q2Q167); test: disruption of hepatitis C core self-association – biochemical, TR-FRET, dose response (AID 2159); parameters: species or system Hepacivirus hominis;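 also: blocks dimerization of HCV core protein measured by TR-FRET between tagged core106 pairs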
[21] = molecular target: T5, Sphingosine 1-phosphate receptor 2; test: Dose Response Cell Based Assay for Agonists of the S1P2 Receptor. [Related pubchem assays: 729, 736, 843 ]; type: functional

T4 sequence (Q99500 whole entry): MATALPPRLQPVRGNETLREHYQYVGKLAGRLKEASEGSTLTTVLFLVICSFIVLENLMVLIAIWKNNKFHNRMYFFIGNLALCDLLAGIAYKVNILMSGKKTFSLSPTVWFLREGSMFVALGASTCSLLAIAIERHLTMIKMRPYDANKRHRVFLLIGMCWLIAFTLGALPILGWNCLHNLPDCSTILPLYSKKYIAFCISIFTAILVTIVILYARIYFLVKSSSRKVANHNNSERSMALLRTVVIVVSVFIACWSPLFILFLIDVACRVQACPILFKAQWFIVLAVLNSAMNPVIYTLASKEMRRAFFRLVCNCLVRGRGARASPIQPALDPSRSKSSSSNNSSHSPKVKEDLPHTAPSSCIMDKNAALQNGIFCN
T5 sequence (O95136 whole entry): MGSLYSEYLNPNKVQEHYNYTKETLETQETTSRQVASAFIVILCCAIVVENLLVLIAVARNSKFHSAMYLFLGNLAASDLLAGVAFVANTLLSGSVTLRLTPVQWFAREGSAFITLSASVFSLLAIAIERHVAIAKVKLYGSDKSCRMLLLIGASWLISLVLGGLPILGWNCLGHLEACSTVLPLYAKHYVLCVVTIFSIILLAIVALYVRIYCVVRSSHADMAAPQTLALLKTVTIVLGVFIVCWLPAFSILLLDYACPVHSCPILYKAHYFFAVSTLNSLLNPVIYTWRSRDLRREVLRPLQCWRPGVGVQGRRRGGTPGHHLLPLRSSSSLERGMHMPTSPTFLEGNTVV
Chain of Sphingosine 1-phosphate receptor 1 (P21453 whole entry): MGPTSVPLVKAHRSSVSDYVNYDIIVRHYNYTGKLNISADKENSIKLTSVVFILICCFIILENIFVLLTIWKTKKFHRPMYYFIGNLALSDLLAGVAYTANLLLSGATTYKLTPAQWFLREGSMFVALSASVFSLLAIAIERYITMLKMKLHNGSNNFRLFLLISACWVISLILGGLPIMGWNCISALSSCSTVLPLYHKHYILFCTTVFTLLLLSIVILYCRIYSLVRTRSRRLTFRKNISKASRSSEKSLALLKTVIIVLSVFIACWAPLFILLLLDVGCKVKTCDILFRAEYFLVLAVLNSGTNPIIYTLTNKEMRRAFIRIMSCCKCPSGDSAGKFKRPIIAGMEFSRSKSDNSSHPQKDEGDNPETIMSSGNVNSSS
Chain of Melanocortin receptor 4 (P32245 whole entry): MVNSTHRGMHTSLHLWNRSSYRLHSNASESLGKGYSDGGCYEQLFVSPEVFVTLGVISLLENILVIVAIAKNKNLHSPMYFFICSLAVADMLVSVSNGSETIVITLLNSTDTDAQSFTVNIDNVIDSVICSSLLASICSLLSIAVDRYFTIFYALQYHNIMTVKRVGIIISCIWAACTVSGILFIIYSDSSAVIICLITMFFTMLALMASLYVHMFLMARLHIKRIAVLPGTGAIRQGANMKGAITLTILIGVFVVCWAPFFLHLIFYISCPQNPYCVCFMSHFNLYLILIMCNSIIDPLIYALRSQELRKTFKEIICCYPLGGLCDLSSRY
Chain of Genome polyprotein (Q2Q167 whole entry): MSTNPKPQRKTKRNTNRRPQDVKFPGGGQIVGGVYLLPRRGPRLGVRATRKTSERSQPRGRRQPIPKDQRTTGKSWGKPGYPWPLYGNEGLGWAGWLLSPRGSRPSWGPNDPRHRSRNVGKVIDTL
Chain of 5-hydroxytryptamine receptor 1E (P28566 whole entry): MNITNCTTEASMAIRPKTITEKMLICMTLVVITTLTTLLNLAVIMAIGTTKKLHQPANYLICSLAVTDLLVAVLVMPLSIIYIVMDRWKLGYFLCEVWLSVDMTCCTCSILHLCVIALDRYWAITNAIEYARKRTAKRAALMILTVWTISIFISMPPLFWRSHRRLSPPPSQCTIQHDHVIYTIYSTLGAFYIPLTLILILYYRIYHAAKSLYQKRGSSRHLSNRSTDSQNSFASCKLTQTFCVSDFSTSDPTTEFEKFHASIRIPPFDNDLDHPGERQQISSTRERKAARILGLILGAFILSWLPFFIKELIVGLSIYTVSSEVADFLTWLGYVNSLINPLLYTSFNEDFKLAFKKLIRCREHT

Compound: Cc1ccc(S(=O)(=O)NCCCOC(=O)Nc2ccncc2)cc1
CC50 [1]: > 40 µM (active)

Compound: COc1ccc(CNc2ncnc3sccc23)cc1
AC50 [2]: 36 µM (active)
AC50 [3]: 8.63 µM (active)
AC50 [4]: 5.39 µM (active)
EC50 [5]: > 120 µM (not active)
AC50 [6]: 1.66 µM (active)

Compound: CC(C)(C)CC(C)(C)c1ccc(OCCOCC[N+](C)(C)Cc2ccccc2)cc1 [BENZETHONIUM CHLORIDE]
IC50 [7]: 21.9 µM (inactive)
EC50 [8]: > 89.2 µM (inactive)
IC50 [9]: 23.5 µM (active)
IC50 [10]: > 20 µM (inactive)
AC50 [11]: 31.3 µM (active)
IC50 [12]: 13.8 µM (inactive)

EC50 [13]: 110 nM (active)
EC50 [14]: 278 nM (active)
EC50 [15]: > 10 µM (not active)
Compound: O=C(CSc1nnc(-c2ccco2)o1)N(C1CCCCC1)C1CCCCC1

Compound: FC(F)(F)c1cccc(NC(S)=NC(c2ccccc2)c2ccccc2)c1
AC50 [2]: 21.2 µM (active)
AC50 [3]: 26.2 µM (active)
IC50 [16]: 3.29 µM (active)
IC50 [17]: > 50 µM (not active)
EC50 [18]: 9.61 µM (active)
EC50 [19]: 2.22 µM (active)
AC50 [6]: 7.17 µM (active)

IC50 [20]: > 49.8 µM (not active)
Compound: CC1(O)C(=O)C=C2C=C(c3ccc(C#N)cc3)OC=C2C1=O (centres undefined)

EC50 [21]: > 50 µM (not active)
Compound: Cc1ccc(CNC(=O)CCNC(=O)c2ccco2)cc1
